Measurements taken from publication PMC5655689, “Therapeutic potential of the phosphino Cu(I) complex (HydroCuP) in the treatment of solid tumors” (Scientific Reports, 2017).
Where “and” joins values, the source holds several entries; their conditions need not be identical. Equal entries are not always repeated.

Key:
[1] = system: LoVo colorectal oxaliplatin-resistant xenograft; details: mouse, in vivo, ip, 30 mg/kg
Description: (§1) To this aim, we developed the OXP-sensitive and OXP-resistant LoVo xenografts in BALB/c nu/nu mice. […] OXP-sensitive or OXP-resistant LoVo cells (1 × 10^7) were injected in the flank of mice. Once tumor was established (tumor volumes of about 0.4 cm^3, around 14 days after tumor inoculation), mice were randomly divided into six groups (6 animals per group, 8 controls). The HydroCuP-treated groups (6 mice each group) received daily 30 mg/kg by i.p. injection and the OXP-treated group was given 2 mg/kg by i.p. injection. At day 30, animals were sacrificed, and the inhibition of tumor growth was determined (Fig. 4, panel A). Measurements of body weights were recorded from day 14 every 2 days until the experimental endpoint (Fig. 4, panel B).
(§2) (A) LoVo and LoVo-OXP tumor xenografts in 6-week-old BALB/c nu/nu mice by injecting 1 × 10^7 tumor cells subcutaneously on the left dorsal flank. After 24 h from tumor implantation, mice randomly divided into six groups (6 animals per group). Chemotherapy delayed until day 14 (tumor volumes of about 0.4 cm^3). From day 14, HydroCuP dosed daily at 30 mg/kg i.p., OXP dosed daily at 2 mg/kg i.p. At day 30, animals sacrificed, and the inhibition of tumor growth determined by comparing the volume of the control group and the treatment group expressed as percentage referred to the control animals. Error bars indicate the S.D. *p < 0.05, **p < 0.01, with respect to control. […] Body weight was measured every two days and was taken as a parameter of systemic toxicity. The error bars indicate the S.D. **P < 0.01; *P < 0.05.
(§3) LoVo and LoVo-OXP tumor xenografts were established in 6-week-old BALB/c nu/nu mice by injecting 1 × 10^7 tumor cells subcutaneously (100 μL in serum free medium) on the left dorsal flank. After 24 h from tumor implantation, mice were randomly divided into six groups (6 animals per group, 8 controls). Chemotherapy was delayed until the tumor was about 0.4 cm^3 (day 14). From day 14, HydroCuP was dosed daily at 30 mg/kg i.p. whereas OXP was dosed daily at 2 mg/kg i.p. Measurements of body weights and tumor volumes were recorded from day 14 every 2 days until the experimental endpoint. The long axis (L) and the short axis (S) were measured with callipers, and the tumor volume (V) was calculated using the following equation: V = SxSxL/2. At day 30, animals were sacrificed, and the inhibition of tumor growth was determined by comparing the volume of the control group and the treatment group expressed as percentage referred to the control animals.

[2] = system: LoVo colorectal oxaliplatin-sensitive xenograft; assay: In vivo activity toward LoVo (OXP-sensitive) tumor xenograft in BALB/c nu/nu mice; details: 30 mg/kg daily i.p. from day 14, day 30
Description: as §1, §2, §3

[3] = system: DRG explants from 15 day-embryonic Sprague-Dawley rats; assay: Neurotoxicity: neurite elongation in DRG explants; details: 48 h, DRG explants with NGF; OXP 5, 7.5, 10 μM; HydroCuP 5, 10, 20 μM
Description: To investigate the potential neurotoxic effect of HydroCuP, we employed a well-established in vitro model based on organotypic cultures of DRG from 15-day-old rat embryos. Neurite elongation under NGF influence was evaluated in DRG explants. […] For comparison purposes, the effect induced by the reference drugs OXP and CDDP was also tested.
OXP and HydroCuP toxicity at 48 h in DRG explants from 15 day-embryonic Sprague-Dawley rats. Representative images of neurite length in maturing DRG explants with different concentrations of OXP and HydroCuP (A). Bar: 500 µm.
DRG from E15 Sprague-Dawley rats (Envigo, San Pietro al Natisone, Italy) were aseptically removed and cultured onto a single layer of rat tail collagen surfaces in 35-mm dishes as previously described[36].
The DRG were incubated in AN2 medium [MEM added with 1.4 mM L-glutamine (Euroclone, Pero, Italy), 10% calf bovine serum (Hyclone, Thermo Scientific, Logan, UT) 50 µg/ml ascorbic acid, 0.6% glucose (Sigma-Aldrich) in the presence of 5 ng/ml nerve growth factor (NGF; Life Technologies, Monza, Italy) in a 5% CO2 humidified incubator at 37 °C.
To evaluate the neurotoxicity of HydroCuP and OXP, the DRG explants were treated for 2 h with NGF and subsequently exposed to each drug at different concentrations for 48 h. OXP was tested at 5, 7.5 and 10 μM while 5, 10 and 20 μM of HydroCuP was used. DRG treated with AN2 medium supplemented with 5 ng/ml NGF alone were used as controls. Phase-contrast micrographs were taken, and the length of the longest neurite in each DRG was measured by Image J (NIH, Bethesda, MD), using a standard calibration grating photographed at the same magnification. A compound is considered neurotoxic when the mean neurite elongation is reduced by 50% or more after drug exposure vs control.

[4] = system: Lewis Lung Carcinoma (LLC); assay: In vivo antitumor activity towards Lewis Lung Carcinoma (LLC) implanted i.m. in C57BL mice; parameters: species or system mouse; details: for Average tumor weight (mean ± S.D., g) / Inhibition of tumor growth (%): day 15
Description: The schedule of HydroCuP administration in vivo was initially determined by assessing the total dose that could be injected without undue toxicity for different schedules in nontumor-bearing C57BL mice (data not shown). […] Three schedules of i.p. HydroCuP were administered: early treatment (days 3, 5, 7 and 9 after tumor inoculum), intermediate treatment (days 7–14) and late treatment with split-doses (days 9–11 with a loading dose and days 12–14 with a lower maintenance dose). […] Cisplatin treatment schedule was selected according to standard protocols designed to optimize its efficacy and minimize the occurrence of adverse events. For the early treatment, control mice received the vehicle (0.9% NaCl). HydroCuP was dosed at 25, 35 and 50 mg/kg i.p. on days 3, 5, 7, 9, 11 and 13 after tumor implantation. Cisplatin was dosed at 1.5 mg/kg i.p. on days 3, 5, 7, 9, 11 and 13 after tumor implantation.
The mice were purchased from Charles River, Italy, housed in steel cages under controlled environmental conditions (constant temperature, humidity, and 12 h dark/light cycle), and alimented with commercial standard feed and tap water ad libitum. The LLC cell line was purchased from ECACC, United Kingdom. The LLC cell line was maintained in DMEM (Euroclone, Pero, Italy) supplemented with 10% heat-inactivated foetal bovine serum (Euroclone, Pero, Italy), 10 mM L-glutamine, 100 U/mL penicillin, and 100 µg/mL streptomycin in a 5% CO2 air incubator at 37 °C. The LLC was implanted intramuscularly (i.m.) as a 2 × 10^6 cell inoculum into the right hind leg of 8-week old male and female C57BL mice (24 ± 3 g body weight). The antitumor activity of HydroCuP in LLC tumor model has been investigated by means of different schedules (early treatment, intermediate treatment and late treatment) and compared with that promoted by the reference metallodrug, CDDP. In the early-stage treatment, animals were treated at day 3, 5, 7, 9, 11 and 13 after the tumor cell inoculum with an i.p. injection of HydroCuP (25, 35 and 50 mg/kg), CDDP (1.5 mg/kg) or the vehicle solution (0.9% NaCl).
In the intermediate treatment, animals were treated after 7 days from tumor implantation (visible tumor) with daily i.p. doses of HydroCuP (30 and 50 mg/kg), CDDP (1.5 mg/kg) or the vehicle solution (0.9% NaCl). In the late treatment, animals were treated after 9 days from tumor implantation (palpable tumor) with i.p. doses of HydroCuP (50 mg/kg) from day 9 to day 11 and with i.p. doses of HydroCuP (30 mg/kg) from day 12 to day 14, or with daily doses of CDDP (1.5 mg/kg) or with the vehicle solution (0.9% NaCl). At day 15, animals were sacrificed, the legs were amputated at the proximal end of the femur, and the inhibition of tumor growth was determined according to the difference in weight of the tumor-bearing leg and the healthy leg of the animals expressed as a percentage referring to the control animals. Body weight was measured every 2 days and was taken as a parameter for systemic toxicity.

26S proteasome = system: 26S proteasome; parameters: method as in PMID 21388518; details: cited from earlier work
[5] = system: 2D human cancer cell cultures; parameters: method as in PMID 18251492, PMID 21388518; details: cited from earlier work
[6] = system: p-PERK and p-IRE1 (UPR pathway); assay: IHC analysis of p-PERK and p-IRE1 in LLC tumor samples; assay type: in vivo, mouse; details: later-stage regimen
Excerpt: In order to investigate the in vivo activation of the UPR induced by HydroCuP, the levels of the phospho-PERK (p-PERK) and phospho-IRE1 (p-IRE1) were detected in tumor samples derived from treated LCC-bearing mice (following later-stage regimen). […] In control samples, p-PERK staining was found moderate in cytoplasm (in about 40% cell population) and intense in perinuclear-ER (about 5% of cell population). […] With regard to the […], p-IRE1, control tumors were weakly positive in cytoplasm (in about 15% cell population).
Figure 6 IHC analysis of p-PERK and p-IRE1 expression in LLC tumor samples. (A) Pictures show representative patterns of p-PERK and p-IRE1 expression by IHC in control LLC tumor samples (a and c) and in HydroCuP-treated tumor samples (b and d); magnification: ×10. (B) p-PERK (a) and p-IRE1 (b) values, evaluated in LLC tumor sections. The quantification of IHC images was performed by using Image J software. Columns indicate quantitative analysis in n = 3 different tumors per group; *P < 0.05.
To evaluate p-PERK and p-IRE1 expression, five-micron-thick formalin-fixed, paraffin-embedded (FFPE) tumor samples of LLC models (3 tumors/group, 3 sections/tumor and 3 images/sections) were stained by IHC using anti-human p-PERK (Thr981, Santa Cruz) or p-IRE1 (Ser724, Abcam) primary antibodies according to the manufacturer’s instructions. IHC was performed using a Leica Bond III Autostainer (Leica). Antigen retrieval was performed in citrate buffer for 15 min. Sections were counter-stained with Mayer’s haematoxylin. IHC results were evaluated by one experienced pathologist with no prior knowledge of experimental data. The quantification of IHC images was performed by using Image J software.

[7] = Early treatment, 35 mg/kg i.p. days 3, 5, 7, 9, 11, 13
[8] = Early treatment, 50 mg/kg i.p. days 3, 5, 7, 9, 11, 13

With `F[P-](F)(F)(F)(F)F.OC[P+](CO)(CO)[Cu-3]([P+](CO)(CO)CO)([P+](CO)(CO)CO)[P+](CO)(CO)CO` [HydroCuP, [Cu(thp)4][PF6]] the “Body weight and health vs control group” value [1] was “No significant difference in body weight”, the “Inhibition of tumor growth (decrease in final tumor volume)” value [2] was “about 65%” and the “Neurotoxic effect (neurite elongation)” value [3] was “no neurotoxic effect even at the highest concentrations”. The “Average tumor weight (mean ± S.D., g)” value ([4]; Early treatment, 25 mg/kg i.p. days 3, 5, 7, 9, 11, 13) was 0.473 ± 0.12 g, the “Inhibition of tumor growth (%)” value ([4]; Early treatment, 25 mg/kg i.p. days 3, 5, 7, 9, 11, 13, 25 mg/kg) was 26% and 25.86% and the “Average tumor weight (mean ± S.D., g)” value [4, 7] was 0.273 ± 0.04 g. For the same compound, the “Inhibition of tumor growth (%)” value [4, 7] was 57.21%, the “Average tumor weight (mean ± S.D., g)” value [4, 8] was 0.113 ± 0.04 g and the “Inhibition of tumor growth (%)” value [4, 8] was 82.28%. For the same compound, the Body weight changes ([4]; Early treatment, LLC-bearing C57BL mice, 15 days) was “did not induce significant body weight loss”, the “Average tumor weight (mean ± S.D., g)” value ([4]; Intermediate treatment, 30 mg/kg daily i.p. day 7-14) was 0.088 ± 0.03 g and the “Inhibition of tumor growth (%)” value ([4]; Intermediate treatment, 30 mg/kg daily i.p. day 7-14, 30 mg/kg) was 82% and 82.37%. For the same compound, the “Average tumor weight (mean ± S.D., g)” value ([4]; Intermediate treatment, 50 mg/kg daily i.p. day 7-14) was 0.071 ± 0.02 g, the “Inhibition of tumor growth (%)” value ([4]; Intermediate treatment, 50 mg/kg daily i.p. day 7-14, 50 mg/kg) was 85% and 85.85% and the Body weight loss ([4]; Intermediate treatment, LLC-bearing C57BL mice) was < 10%. For the same compound, the “Average tumor weight (mean ± S.D., g)” value ([4]; Late treatment, 50 mg/kg (days 9-11) then 30 mg/kg (days 12-14) daily i.p.) was 0.024 ± 0.03 g, the “Body weight changes / adverse effects” value ([4]; Late treatment, LLC-bearing C57BL mice) was “did not induce any adverse effects including significant body weight loss” and the “Effect on CT-L, T-L and C-L catalytic activities of 26S proteasome” value (26S proteasome) was “inhibit chymotrypsin-like (CT-L), trypsin-like (T-L) and caspase-like (C-L) catalytic activities of 26S proteasome”. The “Fold more cytotoxic than CDDP” value [5] was “up to 50”, the “Fold more cytotoxic than OXP” value [5] was ≤ 30 and the “Cytoplasmic p-PERK positivity vs control” value [6] was “no difference in cytoplasmic p-PERK positivity”. The “Perinuclear-ER p-PERK staining” value ([6]; control about 5% of cell population) was “about 30%” and the “Cytoplasmic p-IRE1 positivity (cell population)” value ([6]; control about 15% cell population) was “about 35%”.
